Data published in patent US10780047B2, “Method of providing birth control” (The Population Council, Inc., priority 2019, dated 2020).
Converted amounts (≈) assume the structure as drawn. Read-outs that look alike come from different tables or passages of the source.

Assays:
[1] = Residual amount of drug in vaginal systems used in clinical trials over 13 product-use cycles; format: in vivo, human; conditions: based on residual drug in used systems
Procedure: Although the vaginal system provides SA and EE in the approximate rates described above, SA and EE can diffuse out of the vaginal system with release rates that vary over time. In certain embodiments, the daily in vitro release rates of SA and EE are higher during each initial 24-48 hours of use in a given product-use cycle, achieving a somewhat lower steady-state with continued use over subsequent days in each product-use cycle. Based on the residual amount of drug in vaginal systems used in clinical trials over 13 product-use cycles, a total of approximately 41.3 mg of SA and approximately 3.4 mg of EE are released over this period.

[2] = biological target: cytochrome P450 (CYP) 3A4 isoenzyme (Homo sapiens, UniProt P08684)
Sequence of cytochrome P450 (CYP) 3A4 isoenzyme (P08684 whole entry): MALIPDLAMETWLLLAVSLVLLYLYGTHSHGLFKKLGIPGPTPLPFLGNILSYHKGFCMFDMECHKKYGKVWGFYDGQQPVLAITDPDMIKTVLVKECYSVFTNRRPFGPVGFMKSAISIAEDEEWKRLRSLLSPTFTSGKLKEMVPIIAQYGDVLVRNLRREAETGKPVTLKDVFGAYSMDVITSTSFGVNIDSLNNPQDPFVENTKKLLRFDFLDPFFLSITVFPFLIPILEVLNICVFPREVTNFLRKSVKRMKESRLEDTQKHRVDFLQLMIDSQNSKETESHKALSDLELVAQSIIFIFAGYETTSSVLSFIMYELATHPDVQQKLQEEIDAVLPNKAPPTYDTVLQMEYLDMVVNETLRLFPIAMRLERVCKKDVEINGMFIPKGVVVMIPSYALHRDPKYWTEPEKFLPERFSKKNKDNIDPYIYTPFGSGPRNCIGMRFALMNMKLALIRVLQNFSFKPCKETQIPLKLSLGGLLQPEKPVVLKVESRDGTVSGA
Excerpt: These are present as free metabolites and as sulfate and glucuronide conjugates.

[3] = Drug-drug interaction study with vaginal miconazole formulations; format: in vivo, human; conditions: for overall increase in exposure: concurrent 1 day or 3-day oil-based miconazole suppository; for change in exposure from the vaginal system: concurrent water-based vaginal miconazole cream
Excerpt: However, the use of either the 1 day or the 3-day oil-based miconazole suppository was associated with an overall increase in exposure up to 67% for EE and 32% for SA. Considering the potential long-term effect on vaginal system performance, concurrent use of oil-based vaginal suppositories should not occur with the system's use. If there is a need to treat a vaginal condition, water-based vaginal cream or oral therapy may be used concurrently with the vaginal system.

[4] = co-administration of atorvastatin or rosuvastatin and certain CHCs containing EE; cited from earlier work
[5] = Pharmacokinetics of the vaginal system in 39 women over up to 13 product-use cycles; format: in vivo, human; design: AUC(0-t) / AUC0-21day / AUC0-1day: concentration or dose not given beside the values; conditions: vaginal administration; for AUC0-1day / AUC0-21day / Cavg / Cmax / AUC(0-t): mean (SD)
Procedure: The pharmacokinetics (PK) of the vaginal system described herein were determined in 39 women who used the system for up to 13 product-use cycles. […] Over subsequent product-use cycles, the peak serum concentrations of SA and EE declined. Serum concentration-time profiles of SA and EE for product-pse cycles 1, 3, and 13 of system use are provided in FIG. 1 and FIG. 2 with PK parameters summarized in Table 3 and Table 4.

[6] = biological target: serum albumin (Homo sapiens, UniProt P02768); assay: Serum albumin binding; format: in vitro ADME; conditions: not specifically bound
Sequence of serum albumin (P02768 25-609): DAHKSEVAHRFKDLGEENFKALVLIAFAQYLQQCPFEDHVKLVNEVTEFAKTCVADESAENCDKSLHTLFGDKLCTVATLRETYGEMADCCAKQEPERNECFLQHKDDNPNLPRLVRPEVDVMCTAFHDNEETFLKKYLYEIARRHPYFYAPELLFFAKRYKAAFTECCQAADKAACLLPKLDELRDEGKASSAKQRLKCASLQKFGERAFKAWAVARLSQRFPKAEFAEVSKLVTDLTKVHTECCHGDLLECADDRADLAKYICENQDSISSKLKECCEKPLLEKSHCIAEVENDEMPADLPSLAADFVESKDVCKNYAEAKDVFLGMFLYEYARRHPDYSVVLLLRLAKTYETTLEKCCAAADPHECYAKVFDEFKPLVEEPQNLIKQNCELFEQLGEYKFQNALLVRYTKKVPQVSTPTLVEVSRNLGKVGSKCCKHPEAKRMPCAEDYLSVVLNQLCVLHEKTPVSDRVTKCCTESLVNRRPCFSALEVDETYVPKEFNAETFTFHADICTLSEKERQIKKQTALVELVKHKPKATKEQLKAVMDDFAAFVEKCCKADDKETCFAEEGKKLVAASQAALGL

[7] = Solubility; conditions: descriptive term
[8] = in vivo
[9] = system: mice; assay: 2-year intravaginal carcinogenicity study in mice; format: in vivo, mouse; conditions: intravaginal gel, 2 years
Excerpt: (§1) Long-term continuous administration of natural and synthetic estrogens in certain animal species increases the frequency of carcinomas of the breast, uterus, cervix, vagina, testis, and liver.

[10] = system: human serum proteins; assay: Serum protein binding; format: in vitro ADME
[11] = system: rats; assay: 2-year carcinogenicity study in rats with subdermal implants; format: in vivo, rat; conditions: subdermal implants releasing 40, 100, and 200 μg per day, 2 years
Excerpt: as §1

[12] = system: Chinese hamster ovary cells; assay: Chromosomal aberration assay; format: cell-based
[13] = system: CYP enzymes; assay: In vitro CYP inhibition/induction studies; format: in vitro ADME; conditions: at the therapeutic dose
[14] = biological target: T1, sex hormone-binding globulin (SHBG) (Homo sapiens, UniProt P04278); assay: Binding affinity for SHBG
T1 sequence (P04278 30-402): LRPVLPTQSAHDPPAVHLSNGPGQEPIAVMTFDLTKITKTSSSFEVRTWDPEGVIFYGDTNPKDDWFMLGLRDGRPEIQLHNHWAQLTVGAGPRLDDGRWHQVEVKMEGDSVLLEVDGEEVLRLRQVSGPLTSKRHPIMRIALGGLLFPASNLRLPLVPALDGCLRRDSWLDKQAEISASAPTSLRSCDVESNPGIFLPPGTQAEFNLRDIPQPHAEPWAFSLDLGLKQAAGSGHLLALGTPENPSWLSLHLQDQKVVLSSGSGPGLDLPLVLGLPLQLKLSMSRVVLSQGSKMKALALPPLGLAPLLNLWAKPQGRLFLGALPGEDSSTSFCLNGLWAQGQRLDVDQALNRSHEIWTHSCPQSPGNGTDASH

[15] = system: rats; assay: Return to fertility study in rats with subdermal implants; format: in vivo, rat
Procedure: A return to fertility study was conducted with segesterone acetate in rats, using subdermal implants releasing a dose approximately 25 times the anticipated daily vaginal human dose (based on body surface area).

[16] = system: Salmonella; assay: Ames/Salmonella reverse mutation assay; format: cell-based
[17] = system: QTc interval; assay: Phase 1 thorough QTc study; format: in vivo, human; conditions: single intravenous bolus dose giving 4.5-fold the therapeutic serum concentrations; 44 healthy adult female subjects
Procedure: The effect of SA on the QTc interval was evaluated in a Phase 1 randomized, placebo and positive controlled, double-blind, single-dose, three-period, crossover thorough QTc study in 44 healthy adult female subjects.

[18] = physchem; conditions: water
[19] = system: mouse; assay: In vivo mouse micronucleus test
[20] = clinical; conditions: human, in vivo

## C#C[C@]1(O)CC[C@H]2[C@@H]3CCc4cc(O)ccc4[C@H]3CC[C@@]21C [EE, 19-nor-17α-pregna-1,3,5(10)-trien-20-yne-3,17-diol]
[1]
  total amount released: approximately 3.4 mg
[2]
  metabolizing enzyme: metabolized by the cytochrome P450 (CYP) 3A4 isoenzyme
[3]
  overall increase in exposure: up to 67%
  change in exposure from the vaginal system: no change
[4]
  increase in systemic exposure of EE: 20-25%
[5]; Cycle 1, serum
  AUC0-1day: 2.1 (0.7) ng * hr/mL
  AUC0-21day: 22.2 (9.8) ng * hr/mL
  Cavg: 44 (19) pg/mL
  Cmax: 129 (39) pg/mL
[5]; Cycle 3, serum
  AUC0-1day: 0.9 (0.4) ng * hr/mL
  AUC0-21day: 14.7 (4.7) ng * hr/mL
  Cavg: 29 (9) pg/mL
  Cmax: 60 (32) pg/mL
[5]; Cycle 13, serum
  AUC0-1day: 0.7 (0.3) ng * hr/mL
  AUC0-21day: 9.6 (4.1) ng * hr/mL
  Cavg: 19 (8) pg/mL
  Cmax: 39 (16) pg/mL
[5]; product-use cycle 1, 3 and 13
  median Tmax: about 2 hours
[6]
  bound to serum albumin: 98.5%
[7]
  solubility in alkaline solution: dissolves
[8]; human
  half-life: 15.1 (7.5) hours
[8]
  effect on serum concentrations of SHBG: induces an increase

## C=C1C[C@H]2[C@@H]3CCC4=CC(=O)CC[C@@H]4[C@H]3CC[C@]2(C)[C@@]1(OC(C)=O)C(C)=O [SA, 16-methylene-17α-acetoxy-19-nor-pregn-4-ene-3,20-dione]
[1]
  total amount released: approximately 41.3 mg
[9]; 10 mg/kg/day
  carcinogenic findings: did not result in carcinogenic findings
[9]; 30 mg/kg/day
  carcinogenic findings: increased incidence of adenocarcinoma and lobular hyperplasia in the breast
[10]
  bound to human serum proteins: approximately 95%
[11]
  tumor incidence: no drug-related increase in tumor incidence
[2]; human
  metabolizing enzyme: metabolized by the cytochrome P450 (CYP) 3A4 isoenzyme
[12]
  chromosomal aberration: neither mutagenic nor elastogenic
[3]
  overall increase in exposure: ≤ 32%
  change in exposure from the vaginal system: no change
[5]; Cycle 1, serum
  Cavg: 191 (34) pg/mL
[5]; Cycle 3, serum
  Cavg: 131 (29) pg/mL
[5]; Cycle 13, serum
  Cavg: 94 (20) pg/mL
[5]; female, human, serum, Cycle 1, serum, read-out: AUC0-1day
  AUC(0-t): 15 ng·h/mL
[5]; female, human, serum, Cycle 1, serum, read-out: AUC0-21day
  AUC(0-t): 96.2 ng·h/mL
[5]; female, human, serum, Cycle 1, serum, read-out: Cmax
  Cmax: 1.15 ng/mL
[5]; female, human, serum, Cycle 3, serum, read-out: AUC0-1day
  AUC(0-t): 5 ng·h/mL
[5]; female, human, serum, Cycle 3, serum, read-out: AUC0-21day
  AUC(0-t): 65.9 ng·h/mL
[5]; female, human, serum, Cycle 3, serum, read-out: Cmax
  Cmax: 0.363 ng/mL
[5]; female, human, serum, Cycle 13, serum, read-out: AUC0-1day
  AUC(0-t): 3.9 ng·h/mL
[5]; female, human, serum, Cycle 13, serum, read-out: AUC0-21day
  AUC(0-t): 47.2 ng·h/mL
[5]; female, human, serum, Cycle 13, serum, read-out: Cmax
  Cmax: 0.294 ng/mL
[5]; female, human, serum, product-use cycle 1, 3 and 13, read-out: median Tmax
  Tmax: ~2 h
[13]
  inhibition or induction of CYP enzymes: unlikely to inhibit or induce CYP enzymes
[14]
  binding affinity for sex hormone-binding globulin (SHBG): negligible
[15]; 7 weeks after cessation of treatment
  effects on ovulation or litter parameters after treatment: no adverse effects on ovulation or resulting litter parameters
[15]; subdermal implants, three months of treatment, approximately 25 times the human dose
  effect on fertility: suppressed fertility
[16]
  mutagenicity: neither mutagenic nor elastogenic
[17]
  effect on the QTc interval: did not prolong the QTc interval to any clinically relevant extent
[18]
  solubility: 18.5 µg/mL (≈ 49.9 µM)
[19]
  micronucleus test result: neither mutagenic nor elastogenic
[20]
  Vd: 19.6 L/kg
  half-life: 4.5 h
